# Measurements reported in US12403114B2, “Cannabinoid acid ester compositions and uses thereof” (EPM (IP), INC., priority 2019, dated 2025).
# Experiments:
# [1] = system: endometriosis induced by implantation of rat uterine cornu on the mesenterium; experiment: In vivo rat endometriosis model, pain response to oxytocin; conditions: day 24; injected intra-peritoneally after 21 days; as compared to the control (saline)
# Procedure: Endometriosis was induced by implantation of rat uterine comu on the mesenterium. The tissue was allowed to proliferate in vivo for 21 days. After 21 days, rats in the control group were injected intra-peritoneally with saline while rats in the experimental group were injected with CBDA-Me. Pain response to oxytocin was measured on day 24. The pain response decreased by 50% in the group treated with CBDA-Me as compared to the control.
# [2] = system: chronic colitis in IL-10 KO mice; experiment: Chronic colitis mouse model (IL-10 KO), Example 12; type: in vivo; conditions: IL-10 KO mice fed twice a day for 13 weeks
# Procedure: Mice with targeted discruption of the IL-10 gene (IL-10 KO) and littermate wild-type controls (IL-10 WT) were used (see for example Scheinin et al., Clin. Exp. Immunol., 2003, 133:38-43). After 4 weeks of age mice were fed twice a day for 13 weeks with one of the following treatments: CBD, CBDA-Me, an anti-TNF antibody (control), none (untreated control mice). The CBDA-Me efficacy is compared to CBD and controls.
# Cytokine levels of IL-1B and TNFα were measured using ELISA kits (R&D Systems, USA). Colon TNFα (FIG. 14), blood IL-1b (FIG. 15), and mouse endoscopic index of colitis severity (MEICS) scoring levels (FIG. 16) were lower in mice treated with CBDA-Me compared to CBD.
# [3] = system: Human Endometrial Stromal Cell Line (SHT290); experiment: In vitro endometriosis model: attachment and proliferation of endometrial stromal cells; type: cell-based; conditions: added to the medium; dose dependent fashion
# Procedure: Cultured cells from Human Endometrial Stromal Cell Line (SHT290) were used. CBDA-Me was added to the medium and the attachment of cells and their proliferation rate were measured.
# [4] = system: DSS induced acute colitis; experiment: DSS induced acute colitis mouse model, Example 11; type: in vivo, C57BL/6 mice
# Procedure: The therapeutic effect of CBDA-Me on inflammatory bowel disease (IBD) was examined in an acute colitis mouse model. Colitis was induced in 10 weeks old female C57BL/6 mice using dextran sodium sulphate (DSS). Mice were fed for 8 days with 2% (wt/vol) DSS in their drinking water. Mice were administered (3 animals in each group) one of the following treatments by gavage: CBD (400 mg/kg), CBDA-Me (10 mg/kg or 40 mg/kg), DSS alone (untreated control), prednisone (90 mg/kg, control), none (healthy mice).
# (§1) Weight loss was measured on days 1, 3, 5, 8, and 10.
# (§2) Next, the mice were sacrificed and the length of their colons were measured.
# Cytokine levels of IL-6 and TNFα were measured using ELISA kits (R&D Systems, USA). Colon TNFα (FIG. 10), blood IL-6 (FIG. 11), and mouse endoscopic index of colitis severity (METICS) scoring levels (FIG. 12) were lower in mice treated with CBDA-Me compared to CBD. Representative photos of colonoscopy can be seen in FIG. 13A-13E.
# [5] = system: Th1 (chronic and acute atopic dermatitis) mediated inflammation; experiment: Ex vivo induced inflammation of human skin explants, Th1 stimulation; type: cell-based; conditions: topical at 40 h and 16 h prior to stimulation; degree comparable/improved to 1% hydrocortisone ointment (FIG. 6)
# Procedure: (§3) The efficacy of CBDA-Me was compared to that of corticosteroid treatment in an ex vivo model of induced inflammation of human skin explants (see for example WO2019/063122 and WO2014/182655).
# (§4) Freshly excised healthy human skin was dermatomed to an approximate thickness of 750±100 μm. The dermatomed skin was cut into 1 cm^2 sections and mounted onto static Franz cells with a dosing area of approximately 0.6 cm^2.
# (§5) The experiment was performed as follows: • (i) Static Franz cells (n=4 per treatment), with an average surface area of approximately 0.6 cm^2 and a volume of approximately 2.0 mL were employed. • (ii) Skin was mounted onto the static Franz cell, Stratum corneum side up, and clamped into place. • (iii) The receptor compartment was filled with approximately 2 mL of warm (ca. 37° C.) Cornification media. • (iv) CBDA-Me or 1% Perrigo® hydrocortisone ointment (control) was applied topically at 40 hours and 16 hours prior to stimulation and was incubated at 37° C. with 5% C02. • (v) The contents of the receptor compartment from each cell was vacuum aspirated and replaced with 2 mL pre-warmed (ca. 37° C.) cornification media, containing either Th1 or Th17 stimulation cocktail. • (vi) Tissue explants were harvested at 24 hours post-stimulation and placed in RNAlater® solution for further processing. […]
# [6] = system: Th17 (psoriasis) mediated inflammation; experiment: Ex vivo induced inflammation of human skin explants, Th17 stimulation; type: cell-based; conditions: topical at 40 h and 16 h prior to stimulation; degree comparable/improved to 1% hydrocortisone ointment (FIG. 7)
# Procedure: as §3, §4, §5
# [7] = molecular target: T1, serotonin 5-HT1A Receptor (Homo sapiens, UniProt P08908); conditions: CBDA activates the receptor; background statement; cited from earlier work
# T1 sequence (P08908 1-422): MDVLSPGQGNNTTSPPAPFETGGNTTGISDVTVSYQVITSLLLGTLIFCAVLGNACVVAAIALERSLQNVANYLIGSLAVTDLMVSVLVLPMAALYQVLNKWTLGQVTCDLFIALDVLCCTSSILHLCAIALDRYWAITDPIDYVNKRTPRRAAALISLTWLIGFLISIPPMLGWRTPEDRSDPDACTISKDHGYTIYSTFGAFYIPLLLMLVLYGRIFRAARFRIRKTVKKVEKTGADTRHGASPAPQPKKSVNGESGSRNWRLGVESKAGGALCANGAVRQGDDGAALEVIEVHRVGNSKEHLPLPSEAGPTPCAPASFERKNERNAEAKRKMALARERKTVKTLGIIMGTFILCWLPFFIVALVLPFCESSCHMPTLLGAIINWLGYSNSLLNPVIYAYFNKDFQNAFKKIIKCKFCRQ
# [8] = system: partial meniscectomy/ACL transection rat model of surgical induced osteoarthritis and pain induced incapacitance; experiment: Weight bearing in rat meniscectomy model versus hyaluronate and corticosteroid, Example 6; type: in vivo
# Procedure: Rats were allowed to acclimatize for 1 week, followed by assessment of their weight bearing preference using an incapacitance meter. Unilateral medical meniscectomy and anterior cruciate ligament […] (MMX/ACLT) surgery was performed on the right knee of a subject rat. Weight bearing preference was tested before and after surgery. After 2 weeks, treatments with both intra-articular (1) and. intra-peritoneal (6) administrations of EPM301 began in the EPM301 group. In the hyaluronate (HA) and corticosteroid (CS) groups, a single intra-articular injection was performed 2 weeks after model induction. Weight bearing preference was then assessed 4 and 7 days after the start of therapy.
# Wistar Rats (HsdHan female rats 225-249 grams) were acquired from Envigo. The rats were evaluated using an incapacitance tester. They were tested pre-operation, one-week post-operation, two weeks post-operation, prior to injection, 4 and 7 days post injections.
# EPM-301 was dissolved in a solution mixture of 1:1:18 EtOH:cremophor:seline to a final concentration of 3.5 mg/mL. Hyaluronic acid (Arthrease, 1% sodium hyaluronate) and Dexamethasone (kem Pharma, Venus, 72, Pol. Ind. Colom II, 08228 Terrassa, Barcelona) were acquired.
# Intra-articular (i.a.) injection was carried out with 100 uL and intra-peritoneal (i.p.) injections were carried out with 150 uL. All were injected i.a. in the first day. EPM-301 was injected via i.p. administration on the first day, and for 5 additional days everyday via i.p. administration.
# Student's t-test was performed at the last follow-up time to determine effect of the therapy as primary endpoint. The level of significance was 0.05 alpha. ANOVA was used to compare all time points, a post-hob analysis with the Scheffe all comparisons method was performed. Calculations were performed using the Analyze-it Excel add-on function.
# The percentage of weight bearing was calculated as the amount of weight born (in grams) on the right hind limb divided by the amount of weight born on the left hind limb. This ratio was expressed as percentage weight bearing. Prior to operation the Rt/Lt weight bearing in both groups was similar. There were 4 animals in the EPM-301 treated group and 8 animals in each of the HA and CS treated groups, with a total of 20 tested subjects.
# [9] = system: DSS induced acute colitis; experiment: DSS induced acute colitis mouse model, EPM-301 versus EPM-302, Example 13; type: in vivo, C57BL/6 mice; conditions: 10 mg/kg
# Procedure: Colitis was induced in 10 weeks old female C57BL/6 mice using dextran sodium sulphate (DSS). Mice were fed for 8 days with 2% (wt/vol) DSS in their drinking water. […] EPM-302 served as an additional control.
# as §1, §2
# Cytokine levels of IL-6 and TNFα were measured using ELISA kits (R&D Systems, USA). Colon TNFα (FIG. 19), blood IL-6 (FIG. 20), levels were lower in mice treated with CBDA-Me (EPM-301) as compared to EPM-302. Similarly, the MEICS score of EPM-301 treated subjects were also lower than EPM-302 treated subjects (FIG. 21). Representative photos of colonoscopy can be seen in FIG. 22A-22D.
# [10] = molecular target: T2, glucose transporter 2 (GLUT2) (Homo sapiens, UniProt P11168); experiment: 2-NBDG glucose uptake in transfected HEK293t cells; type: cell-based; conditions: 50-0.1 μM tested
# T2 construct: expressed in transfected cells; host or cells: HEK293t
# T2 sequence (P11168 1-524): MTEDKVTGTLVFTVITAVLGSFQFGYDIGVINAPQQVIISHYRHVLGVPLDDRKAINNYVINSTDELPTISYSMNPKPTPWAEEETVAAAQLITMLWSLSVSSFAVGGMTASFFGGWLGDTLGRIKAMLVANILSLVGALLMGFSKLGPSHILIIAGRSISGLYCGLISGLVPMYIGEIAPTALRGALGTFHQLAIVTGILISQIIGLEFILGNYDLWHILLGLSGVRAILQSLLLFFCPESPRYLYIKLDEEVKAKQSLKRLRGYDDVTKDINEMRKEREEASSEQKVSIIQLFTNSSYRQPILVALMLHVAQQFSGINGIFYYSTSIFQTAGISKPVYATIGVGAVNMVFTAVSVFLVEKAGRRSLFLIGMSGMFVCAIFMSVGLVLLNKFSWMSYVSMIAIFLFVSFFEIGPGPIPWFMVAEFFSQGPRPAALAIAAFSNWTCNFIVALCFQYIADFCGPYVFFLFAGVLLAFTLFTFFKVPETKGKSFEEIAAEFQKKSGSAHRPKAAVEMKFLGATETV
# Procedure: In vitro assays for measuring glucose uptake were designed to assess whether EPM-301 and EPM-302 compounds are capable of inhibiting or increasing glucose uptake via glucose transporters (GLUTs).
# Transfected HEK293t cells, which express the glucose transporter 2 (GLUT2), were cultured in a 96 well plate and maintained at 37° C. in 5% CO2 in DMEM medium supplemented with 10% FCS, 2 mM 1-glutamine, 1 mM sodium pyruvate, 100 U/mL penicillin, and […] streptomycin for 24 h. The medium was then washed with a choline chloride Na^+-free buffer (CCB), in which only GLUTs (and not the sodium/glucose transporters [SGLTs]) were active. The wells were then added with CCB/CCB+2-NBDG (a fluorescent derivative of glucose). Compounds were tested in a range of concentrations for their ability to inhibit/increase 2-NBDG uptake into the cells. After 1.5 h incubation, cells were washed with CCB and incubated with 1 μg/μL of Hoechst for 15 mins at 37° C. and protected from light. Fluorescence was measured by the Cytation-3 plate reader at ex:485 nm/em:528 nm and ex:350 nm/em:461 nm for 2-NBDG Hoechst, respectively. Results of the 2-NBDG levels were normalized to Hoechst levels of each well, and presented as a change in the uptake of 2-NBDG in comparison with Vehicle-treated group.
# Vehicle solution (choline chloride buffer), EPM-301 (50-0.1 μM), and EPM-302 (50-0.1 μM) were used for the experiments.
# Values are expressed as mean±SEM. Unpaired two-tailed student's t-test was used to determine the differences between the groups. Significance was set at p<0.05. *versus vehicle; #versus control.
compound,measurement,setting,value
"C=C(C)[C@@H]1CCC(C)=CC1c1c(O)cc(CCCCC)c(C(=O)OC)c1O (stereo in doubt) [EPM-301, cannabidiolic acid methyl ester]",decrease of pain response to oxytocin,[1],50%
same,colon TNFα,[2]; compared to CBD (FIG. 14),lower
same,blood IL-1b,[2]; compared to CBD (FIG. 15),lower
same,mouse endoscopic index of colitis severity (MEICS) scoring,[2]; compared to CBD (FIG. 16),lower
same,attachment of cells,[3],decrease
same,proliferation rate,[3],decrease
same,weight loss,"[4]; 40 mg/kg by gavage, compared to CBD (400 mg/kg), days 1-10 (FIG. 8)",reduced
same,colon length,"[4]; 40 mg/kg by gavage, versus CBD and untreated control mice, similar to prednisone (FIG. 9)",greater
same,mouse endoscopic index of colitis severity scoring,[4]; compared to CBD (FIG. 12),lower
same,colon TNFα,"[4]; compared to CBD, ELISA (FIG. 10)",lower
same,blood IL-6,"[4]; compared to CBD, ELISA (FIG. 11)",lower
same,"Th1 mediated inflammation (IFNγ, TNFα, IL1β, IL2, IL13 by RT-qPCR)",[5],inhibition
same,"Th17 mediated inflammation (IL17α, IL22, CXCL10, IL36g, SerpinB4 by RT-qPCR)",[6],inhibition
"C=C(C)C1CCC(C)=CC1c1c(O)cc(CCCCC)c(C(=O)O)c1O (stereo not shown) [CBDA, 2,4-dihydroxy-3-[3-methyl-6-prop-1-en-2-ylcyclohex-2-en-1-yl]-6-pentylbenzoic acid]",affinity for the 5-HT1A receptor relative to CBD,[7],significantly greater
"C[C@@H]1C[C@H]2[C@@H]3CCC4=CC(=O)C=C[C@]4(C)[C@@]3(F)[C@@H](O)C[C@]2(C)[C@@]1(O)C(=O)CO [CS, Dexamethasone, reference compound]",Rt limb weight bearing,"[8]; following injections, EPM-301 i.a. once plus i.p. 6 days, HA and CS single i.a. injection",62.1%
same,weight bearing,"[8]; immediately prior to injection, two weeks following model induction (baseline before treatment)",52.5%
CCCCCc1cc(O)c(C2C=C(C)CCC2C(C)C)c(O)c1C(=O)OC (stereo not shown) [EPM-302],therapeutic effect,[9],not enough to induce a therapeutic effect
same,concentration at which the effect on glucose transport was observed,[10],all concentrations tested
same,glucose uptake (2-NBDG) in HEK293 cells,"[10]; 1.5 h incubation, versus vehicle (FIG. 36A, 36B)",significantly reduce
